According to patent US6420428B1, “Treatment and prevention of hepatic disorders” (The Regents of the University of California, priority 1996, dated 2002):
“Also recorded” adds a separate entry of the source.

Legend:
[1] = in vivo; cited from earlier work
[2] = target: T1, 5-lipoxygenase (Homo sapiens, UniProt P09917); details: cited from earlier work
T1 sequence (P09917 1-674): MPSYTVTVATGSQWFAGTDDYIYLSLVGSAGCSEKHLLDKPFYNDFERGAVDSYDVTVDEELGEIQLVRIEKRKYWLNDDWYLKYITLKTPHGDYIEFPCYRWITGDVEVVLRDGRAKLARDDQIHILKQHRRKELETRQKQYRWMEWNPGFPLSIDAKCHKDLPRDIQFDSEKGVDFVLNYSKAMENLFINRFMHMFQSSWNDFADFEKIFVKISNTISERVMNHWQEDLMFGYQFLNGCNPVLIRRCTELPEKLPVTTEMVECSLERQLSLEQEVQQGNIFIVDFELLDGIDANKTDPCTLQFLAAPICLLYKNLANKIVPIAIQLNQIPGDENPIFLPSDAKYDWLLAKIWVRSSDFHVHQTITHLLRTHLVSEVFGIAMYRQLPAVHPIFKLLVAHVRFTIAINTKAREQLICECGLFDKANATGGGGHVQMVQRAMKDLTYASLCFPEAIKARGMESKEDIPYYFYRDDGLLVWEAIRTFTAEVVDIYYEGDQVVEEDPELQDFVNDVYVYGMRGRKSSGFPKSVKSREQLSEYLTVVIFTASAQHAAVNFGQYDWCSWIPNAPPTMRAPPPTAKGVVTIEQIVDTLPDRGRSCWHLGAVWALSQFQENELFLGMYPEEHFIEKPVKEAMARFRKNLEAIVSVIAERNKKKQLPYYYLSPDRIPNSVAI

[3] = tested on: fatty acid cyclooxygenase; details: cited from earlier work
[4] = tested on: human polymorphonuclear leukocytes; details: stimulated with calcium ionophore A23187; cited from earlier work
[5] = tested on: phospholipase A2; details: cited from earlier work
[6] = nutritional- or CCl4-induced injury; cited from earlier work
[7] = tested on: cultured stellate cells; details: cited from earlier work
[8] = tested on: chronic hepatitis B or C; details: in vivo; cited from earlier work
[9] = tested on: hepatic stellate cells; experiment: Activation of cultured hepatic stellate cells (α-SMA immunohistochemistry); assay type: cell-based, Sprague-Dawley rats; details: for effect on stellate cell activation / increased α-SMA expression induced by collagen type I matrix: cultured on collagen type I matrix
Experimental: Stellate cells were prepared from male Sprague-Dawley (400-500 grams) rats (Charles River Breeding Labs) by in situ perfusion of the liver and single-step density Nycodenz® gradient (Accurate Chemical & Scientific Corp.). [See Bedossa et al., Hepatology 19(5):1262-71 (1994); Brenner et al., Mol. Biol. Med. 7:105-15 (1990)]. The cells were mixed with 9.5 mL Hank's buffer containing 3 g/L BSA and 8 mL of 28.7% (w/v) Nycodenz® in sodium-free Hank's buffer. The gradient was generated by placing 6 mL of the Hank's/BSA solution on top of the liver cell mixture in a 50 mL centrifugation tube. […] For TGFα-induced stellate cell activation, cells were cultured on plastic in serum-free defined media (Fibroblast basal medium with Insulin, Clonetics). Fibroblast basal medium is similar to F12 medium, but contains folinic acid, Hepes buffer with NaOH, MgSO4, and adenine instead of folic acid, NaHCO3, MgCl2 and hypoxanthine. Cells were plated on 60-mm dishes coated with collagen type 1, EHS matrix (Matrigel; Collaborative Bio-medical Products) or plastic (according to the experimental design), for the initial seeding of fat-storing cells at a density of 2-3×10^6. Matrigel's major components are […], collagen IV, proteoglycans, entactin and nidogen; it also contains:TGFβ, fibroblast growth factor, and tissue plasminogen activator. […] Medium was changed every 24 h for all conditions. The sequences of c-myb oligonucleotide phosphorothioate were: sense ([NT] ID NO:3) and antisense ([NT] ID NO:4). Stellate cells were identified by their typical autofluorescence at 328 nm excitation wavelength, staining of lipid droplets by oil red, and immunohistochemistry with a monoclonal antibody against desmin. [Bedossa et al., Hepatology 19(5):1262-71 (1994)]. Cells, fixed with acetone:methanol (50:50) at -20° C. for 20 min., and liver tissue were immunostained as described, e.g., by Buck et al., EMBO J. 13:851-60 (1994). Antibodies directed against c-myb, NFkB65, α-SMA, or PCNA were obtained from Sigma, 5 Prime 3 Prime, and Oncogene Sciences. Fluorescent labels were visualized using a dual channel Zeiss microscope and a computer imaging system (Image 1 software). A phase-contrast microscope was utilized to visualize antigens with alkaline phosphatase secondary antibodies (Vector Laboratories). Cytochromes utilized were alkaline phosphatase with fast green as counterstain, and FITC with Evans blue as counterstain (Sigma). The number of PCNA (+), c-myb(+), or NFkB(+), α-SMA(+) cells was expressed as a percentage of total cells. At least 1,000 cells were analyzed for each experimental point, and a minimum of two observers analyzed each immunohistochemical experiment independently. Negative control samples were processed in parallel under the same conditions, but with omission of the first antibody. The role of lipid peroxidation on stellate cell activation was examined. Stellate cell activation was induced in quiescent cells growing on a EHS matrix; inhibition of this phenotype was evaluated with cells activated by collagen type I matrix. [See Davis et al., J. Biol. Chem. 262:10280-86 (1987)]. When stellate cell activation was induced by TGFα as described, e.g., by Pinzani et al., J. Clin. […] Stellate cell activation was assessed by the expression of α-SMA (as described in Example 1) and S-phase by the presence of PCNA. [Bravo et al., Nature (Lond.) 326:515-17 (1987)]. […] SEM<30% of the mean for all conditions).

[10] = tested on: hepatic stellate cells; experiment: Proliferation of cultured hepatic stellate cells (nuclear expression of PCNA, S-phase); assay type: cell-based, Sprague-Dawley rats; details: for effect on stellate cell cycle activation (PCNA) induced by collagen type I matrix or TGFα: 50 μM
Experimental: Stellate cells were prepared from male Sprague-Dawley (400-500 grams) rats (Charles River Breeding Labs) by in situ perfusion of the liver and single-step density Nycodenz® gradient (Accurate Chemical & Scientific Corp.). […] The cells were mixed with 9.5 mL Hank's buffer containing 3 g/L BSA and 8 mL of 28.7% (w/v) Nycodenz® in sodium-free Hank's buffer. The gradient was generated by placing 6 mL of the Hank's/BSA solution on top of the liver cell mixture in a 50 mL centrifugation tube. After centrifugation (1000 g, 4° C., 20 min) the cells were aspirated from above the interface and washed twice in serum-free DME regular glucose medium.
Thereafter, the cells were cultured under an atmosphere of 5% CO2, 95% air in tissue culture dishes using DME medium containing penicillin G 100 units/mL, streptomycin sulfate 100 μg/mL and 10% fetal calf serum. For TGFα-induced stellate cell activation, cells were cultured on plastic in serum-free defined media (Fibroblast basal medium with Insulin, Clonetics). Fibroblast basal medium is similar to F12 medium, but contains folinic acid, Hepes buffer with NaOH, MgSO4, and adenine instead of folic acid, NaHCO3, MgCl2 and hypoxanthine. Cells were plated on 60-mm dishes coated with collagen type 1, EHS matrix (Matrigel; Collaborative Bio-medical Products) or plastic (according to the experimental design), for the initial seeding of fat-storing cells at a density of 2-3×10^6. […]
The number of PCNA (+), c-myb(+), or NFkB(+), α-SMA(+) cells was expressed as a percentage of total cells. At least 1,000 cells were analyzed for each experimental point, and a minimum of two observers analyzed each immunohistochemical experiment independently. […]
The role of lipid peroxidation on stellate cell activation was examined. Stellate cell activation was induced in quiescent cells growing on a EHS matrix; inhibition of this phenotype was evaluated with cells activated by collagen type I matrix. […] Stellate cell activation was assessed by the expression of α-SMA (as described in Example 1) and S-phase by the presence of PCNA.

[11] = tested on: fibrogenesis cascade in the liver of patients with chronic hepatitis C; experiment: Liver biopsy immunohistochemistry and in situ hybridization in patients with chronic hepatitis C; assay type: in vivo, human; details: 8 weeks
Experimental: Antisera to MDA-lysine adducts were prepared by a variation of the technique described by Houglum et al., J Clin Invest 86:1991-98 (1990). Briefly, rabbit LDS was purified and modified with MDA, and the modified autologous LDL was used to immunize rabbits.
Sections from paraffin-embedded blocks were deparaffinized, passed through graded series of alcohol, rehydrated in PBS, and stained with hematoxylin and eosin. Immunohistochemistry was performed using the avidin-biotin complex-alkaline phosphatase, peroxidase systems (Vector Laboratories, ABC-peroxidase system) or fluorescein. Sections were immunostained with antibodies specific for MDA-protein adducts, α-smooth muscle actin (Sigma), or c-myb.
The antisera was used with fluorochrome-conjugated secondary antibodies. Fluorescent labels were visualized using a dual filter Zeiss microscope, while a phase-contrast microscope was used to visualize antigens with hematoxilin/eosin or alkaline phosphatase secondary antibodies.
Hybridization, RNase digestion of mismatched sequences, and immunological detection of the digoxigenin-labeled RNA probes were performed as described by Houglum et al., Am. […] Briefly, single stranded RNA probes in both sense and antisense orientations were transcribed in vitro from the plasmid pHuCol, which contains a 300 base pair cDNA fragment of the human collagen α1(I) gene, and labeled with digoxigenin-11-UTP. […] For the labelling procedure, 2 μg of linearized plasmid were transcribed in a 30 μL reaction volume containing 40 mM tris(hydroxymethyl)aminomethane (Tris).HCl, pH 7.9; 6 mM MgCl2; 2 mM apermidine.HCl; 10 mM dithiothreitol, 10 mM ATP, CTP, and GTP; 6.5 mM UTP; and 3.5 mM digoxigenin-11-UTP with 309 units of T3 or T7 DNA polymerase. The specificity of the probe was assessed by in situ hybridization of human skin. All sections were processed using same batches of probe and reagents and using sense and antisense in parallel.

[12] = Plasma d-α-tocopherol by high pressure chromatography in patients; assay type: in vivo, human; details: 1,200 IU/day orally for 8 weeks; before treatment 9.6±4.3; P<0.003
From the text: (§1) Patients with chronic active hepatitis C and severe necro-inflammatory changes without cirrhosis (as established by liver biopsy) were studied at the University of California San Diego Liver Clinic. Six patients (2 women and 4 men; 47±8 years) who had not responded to interferon α-2b therapy (i.e., who were refractory) and with no other co-morbid illnesses received 1,200 IU/day of d-α-tocopherol orally for 8 weeks. On completion of the study, all patients underwent a liver biopsy; liver sections from patients with chronic hepatitis C and from individuals without liver disease were provided by Dr. C. Behling at UCSD.
(§2) Liver tissue obtained from biopsies was studied, as described below, by immunohistochemistry and in situ hybridization with specific riboprobes. Carbonyl modifications were assayed in plasma proteins, as an index of oxidative stress. [Palinski et al., Arteriosclerosis 10:325-35 (1990)]. Serum alanine aminotransferase (ALT) was determined with a (Hitachi) analyzer, plasma d-α-tocopherol by high pressure chromatography, and HCV RNA by quantitative PCR. [See U.S. Pat. Nos. 4,683,202 and 4,683,195, hereby incorporated by reference].

[13] = Carbonyl modifications of plasma proteins (index of oxidative stress) in patients; assay type: in vivo, human; details: 1,200 IU/day, 8 weeks; before treatment 2.7±0.4; P<0.001
From the text: as §1, §2

[14] = tested on: HCV; experiment: HCV RNA by quantitative PCR in patients; assay type: in vivo, human; details: 1,200 IU/day, 8 weeks
From the text: as §1, §2

[15] = tested on: collagen expression; details: injected into mice; cited from earlier work
[16] = cited from earlier work
[17] = tested on: cyclooxygenase; details: cited from earlier work
[18] = target: T1, 5-lipoxygenase; details: cited from earlier work; remark: listed apart in the source

interferon alpha
patients requiring discontinuance or dosing adjustment [1]: 20-50%

CC(C)(C)c1cc(C=C2SCNC2=O)cc(C(C)(C)C)c1O [LY-178002, 5-{[3,5-bis(1,1-dimethylethyl)-4-hydroxyphenyl]methylene}-4-thiazolidine]
enzymatic activity of 5-lipoxygenase [2]: inhibit | enzymatic activity of fatty acid cyclooxygenase [3]: inhibit | leukotriene B4 production [4]: inhibit leukotriene B4 production | enzymatic activity of phospholipase A2 [5]: inhibit

CCCCC[C@H](O)/C=C/[C@H]1[C@H](O)CC(=O)[C@@H]1C/C=C\CCCC(=O)O [prostaglandin E2]
hepatocellular necrosis [6]: ameliorate hepatocellular necrosis

NC1=NN(c2cccc(C(F)(F)F)c2)CC1 [BW-755c]
inhibition of activation and collagen expression/production [7]: success in inhibiting activation and collagen production

CCCOC(=O)c1cc(O)c(O)c(O)c1 [propyl gallate]
inhibition of activation and collagen expression/production [7]: success in inhibiting activation and collagen production

NC(=O)c1ncn([C@@H]2O[C@H](CO)[C@@H](O)[C@H]2O)n1 [ribovirin]
effectiveness [8]: neither has been shown to be very effective

Cc1c(C)c2c(c(C)c1O)CC[C@@](C)(CCC[C@H](C)CCC[C@H](C)CCCC(C)C)O2 [d-α-tocopherol]
effect on stellate cell activation / increased α-SMA expression induced by collagen type I matrix ([9]; 50 μM): blocked the induction of stellate cell activation by collagen type I matrix; also recorded: abolished | effect on stellate cell cycle activation (PCNA) induced by collagen type I matrix or TGFα [10]: blocked the activation of the stellate cell cycle | expression of c-myb in stellate cells ([11]; 1,200 IU/day orally): diminished expression of c-myb in stellate cells | stellate cell activation (α-SMA) in liver sections ([11]; 1,200 IU/day orally): lesser degree of stellate cell activation | expression of collagen α1(I) mRNA in stellate cells ([11]; 1,200 IU/day orally, in situ hybridization): lower expression of collagen al(I) mRNA in stellate cells | MDA-adducts in liver sections ([11]; 1,200 IU/day orally, patients refractory to interferon): decreased MDA-adducts | effect on histologic degree of hepatocellular inflammation ([11]; 1,200 IU/day): did not significantly affect | plasma levels of d-α-tocopherol after treatment [12]: 27±6.8 | carbonyl modified plasma proteins after treatment [13]: 1.5 ± 0.4 µmol/mL | effect on HCV titres [14]: did not significantly affect | collagen expression by the skin [15]: did not inhibit collagen expression by the skin | collagen expression in the liver and tendons [15]: decreases collagen expression in the liver and tendons | hepatocellular necrosis [6]: ameliorate hepatocellular necrosis

CC(C)(Sc1cc(C(C)(C)C)c(O)c(C(C)(C)C)c1)Sc1cc(C(C)(C)C)c(O)c(C(C)(C)C)c1 [probucol]
inhibition of activation and collagen expression/production [7]: success in inhibiting activation and collagen production

CN1CSC(=Cc2cc(C(C)(C)C)c(O)c(C(C)(C)C)c2)C1=O [LY-256548, 5-{[3,5-bis(1,1-dimethylethyl)-4-hydroxyphenyl]methylene}-4-N-methylthiazolidine]
enzymatic activity of 5-lipoxygenase [2]: inhibit | enzymatic activity of fatty acid cyclooxygenase [3]: inhibit | leukotriene B4 production [4]: inhibit leukotriene B4 production | enzymatic activity of phospholipase A2 [5]: inhibit

Cc1cc(C(C)(C)C)c(O)c(C(C)(C)C)c1 [BHT, 2,6-Bis(1,1-dimethylethyl)-4-methylphenol]
effect on stellate cell activation / increased α-SMA expression induced by collagen type I matrix ([9]; 50 μM): blocked the induction of stellate cell activation by collagen type I matrix; also recorded: abolished | effect on stellate cell cycle activation (PCNA) induced by collagen type I matrix or TGFα [10]: blocked the activation of the stellate cell cycle | solubility in alcohols ([16]; alcohols like ethanol and isopropanol): soluble | solubility in water ([16]; water): insoluble

C#CCCCC(=O)c1cc(C(C)(C)C)c(O)c(C(C)(C)C)c1 [tebufelone, 4-(5′-hexynoyl)-2,6-di-tert-butylphenol]
cyclooxygenase inhibition [17]: reversibly inhibits | 5-lipoxygenase inhibition [18]: reversibly inhibits

O=CCC=O [malondialdehyde]
activation of hepatic stellate cells on EHS matrix ([9]; 50 μM, data not shown): able to activate stellate cells, but to a lesser extent | activation of hepatic stellate cells on EHS matrix ([9]; 200 μM): markedly stimulated the activation of hepatic stellate cells | cells (+) for α-SMA ([9]; stellate cells cultured on plastic, 58% without malondialdehyde, P<0.05): 93% | stellate cell entry into S-phase ([10]; 200 μM, EHS matrix): stimulated stellate cell entry into S-phase
